From ChEMBL document CHEMBL3632522, “Novel 3,4-methylenedioxyde-6-X-benzaldehyde-thiosemicarbazones: Synthesis and antileishmanial effects against Leishmania amazonensis” (Eur J Med Chem, 2015) come the findings set out here.

pIC50: −log10 of the molar value. The source made the active and inactive calls. The calls are words filed in the database; no cut-off is given here. Some results are limits rather than exact numbers.

The term pIC50 denotes the IC50 on a negative log10 scale, so that one unit is a factor of ten.

Data set [1] concerns Leishmania amazonensis. As to the kind of experiment: Antileishmanial activity against Leishmania amazonensis Leishmania amazonensis MHOM/BR/77/LTB0016 intracellular amastigotes infected in BALB/c mouse macrophages at 12.5 to 100 uM incubated for 72 hrs by optical microscopy. It counts as functional, organism-based.
A short description of data set [2]: Cytotoxicity against BALB/c mouse peritoneal macrophages assessed as cell viability after 72 hrs by resazurin assay. Particulars: read-out: LD50. It counts as cell-based, Peritoneal macrophage cell. On the technique in general: Alamar Blue is a resazurin reagent that responds to reducing activity.
For data set [3], the system named is Leishmania amazonensis. Nature of the data set: Antileishmanial activity against Leishmania amazonensis Leishmania amazonensis MHOM/BR/77/LTB0016 intracellular amastigotes infected in BALB/c mouse macrophages incubated for 72 hrs by microscopy. It is filed as functional, organism-based. Particulars: MHOM/BR/77/LTB0016, 72 h.
In data set [4] the test system is Leishmania amazonensis. As to the kind of experiment: Antileishmanial activity against Leishmania amazonensis MHOM/BR/77/LTB0016 assessed as inhibition of parasite growth incubated for 72 hrs by MTT assay. Particulars: for pIC50: MHOM/BR/77/LTB0016, 72 h. It is filed as functional, organism-based.
Data set [5] is described as follows: Selectivity index, ratio of LD50 for BALB/c mouse peritoneal macrophages to IC50 for Leishmania amazonensis MHOM/BR/77/LTB0016 intracellular amastigotes infected in BALB/c mouse peritoneal macrophages.
Data set [6] in a line: Cytotoxicity against BALB/c mouse peritoneal macrophages infected with Leishmania amazonensis MHOM/BR/77/LTB0016 intracellular amastigotes assessed as cell viability at 12.5 to 100 uM after 72 hrs by resazurin staining based optical microscopy. Particulars: peritoneal macrophage cell.

For `N#Cc1cc2c(cc1/C=N/NC(N)=S)OCO2`, the outcome in data set [1] was Active. Moreover, in data set [2], the CC50 at 72 h was greater than 125 µM. In addition, the pIC50 in data set [3] is 4.77. Moreover, in data set [4], the inhibition result is “Dose-dependent effect” and the pIC50 was 4.79. In addition, in data set [5], the “Ratio LD50/IC50” value was greater than 7.4. In data set [6], the Activity entry was “Non-toxic”.

With `NC(=S)N/N=C/c1cc2c(cc1[N+](=O)[O-])OCO2`, in data set [4], the inhibition entry is “Dose-dependent effect” and the pIC50 was 3.57.

For `NC(=S)N/N=C/c1cc2c(cc1I)OCO2`, in data set [1], the outcome was Active. Besides, in data set [2], the CC50 at 72 h was greater than 125 µM. Further, the pIC50 in data set [3] is 4.66. In addition, in data set [4], the inhibition entry is “Dose-dependent effect” and the pIC50 was 4.68. Besides, the “Ratio LD50/IC50” value in data set [5] was greater than 5.7. In addition, in data set [6], the Activity result is recorded as “Non-toxic”.

Regarding `NC(=S)N/N=C/c1cc2c(cc1N)OCO2`, in data set [4], the inhibition entry was “Dose-dependent effect” and the pIC50 was 3.93.

In the case of `NC(=S)N/N=C/c1cc2c(cc1Br)OCO2`, in data set [4], the inhibition result is “Dose-dependent effect” and the pIC50 is 3.69.

`N=C(N)c1ccc(OCCCCCOc2ccc(C(=N)N)cc2)cc1` [PENTAMIDINE]: in data set [2], the CC50 at 72 h is 8.5 µM. The compound also gave a pIC50 in data set [3] of 5.72. In data set [4], the inhibition result was “Dose-dependent effect” and the pIC50 was 5.32. The “Ratio LD50/IC50” value in data set [5] stood at 4.5.

On to `NC(=S)N/N=C/c1cc2c(cc1F)OCO2`, for which, in data set [4], the inhibition entry was “Dose-dependent effect” and the pIC50 was 3.70.

In the case of `NC(=S)N/N=C/c1ccc2c(c1)OCO2`, in data set [4], the inhibition result was “Dose-dependent effect” and the pIC50 was 4.10.

For `NC(=S)N/N=C/c1cc2c(cc1NC(=O)CCl)OCO2`, in data set [4], the inhibition entry was “Dose-dependent effect” and the pIC50 is 3.59.

Regarding `NC(=S)N/N=C/c1cc2c(cc1Cl)OCO2`, in data set [4], the inhibition result is “Dose-dependent effect” and the pIC50 was 3.61.

In the case of `NC(=S)N/N=C/c1cc2c(cc1O)OCO2`, in data set [4], the inhibition result was “Dose-dependent effect” and the pIC50 is 4.28.
